Converted amounts (≈) assume the structure as drawn.
Tests used:
Type in all cases: cell-based
[1] = tested on: human promyelocytic leukemia cell line (HL-60); assay: Inhibition of cancer cell proliferation (WST-8 cell survival), HL-60; conditions: HL-60 cell line, 48 hours culture with compound, WST-8, OD450
Experimental: (§1) Following experiment was performed to investigate the inhibitory activity of the compounds 1 and 2 of the present invention on the proliferation of cancer cells.
(§2) Particularly, human breast cancer cell line (MDA-MB-231, 5.0×10^3 cells per well), mouse fibroblast cell line (3Y1, 5.0×10^3 cells per well), and human liver cancer cell line (Hep3B, 5.0×10^3 cells per well) were cultured respectively in DMEM (Dulbecco's modification of Eagles medium, supplemented with 10% FBS). And human chronic myeloid leukemia cell line (K562, 3.0×10^4 cells per well) and human promyelocytic leukemia cell line (HL-60, 1.0×10^5 cells per well) were cultured respectively in RPMI 1640 (Roswell Park Memorial Institute 1640 medium, supplemented with 10% FBS). Each cell line cultured above was treated with different concentrations of the compound 1 and compound 2 (100 μg/ml, 30 μg/ml, 10 μg/ml, 3 μg/ml, and 1 μg/ml), followed by culture in a 5% CO2 incubator for 48 hours at 37° C. WST-8 reagent (2-(2-methoxy-4-nitrophenyl)-3-(4-nitrophenyl)-5-(2,4-disulfophenyl)-2H-tetrazolium, monosodium salt) producing high sensitive water soluble formazan was added thereto, followed by further culture for 24 hours. OD450 was measured to calculate cell survival rate.

[2] = tested on: human breast cancer cell line (MDA-MB-231); assay: Inhibition of cancer cell proliferation (WST-8 cell survival), MDA-MB-231; conditions: MDA-MB-231 cell line, 48 hours culture with compound, WST-8, OD450
Experimental: as §1, §2

[3] = tested on: mouse fibroblast cell line (3Y1); assay: Inhibition of cell proliferation (WST-8 cell survival), 3Y1; conditions: 3Y1 cell line, 48 hours culture with compound, WST-8, OD450
Experimental: as §1, §2

[4] = tested on: human chronic myeloid leukemia cell line (K562); assay: Inhibition of cancer cell proliferation (WST-8 cell survival), K562; conditions: 48 hours culture with compound, WST-8, OD450
Experimental: as §1, §2

[5] = tested on: human breast cancer cells (MDA-MB-231 cells); assay: Inhibition of cancer cell metastasis, trans-well chamber (Matrigel Invasion Chamber); conditions: migration induced by 10% FBS, 24 hours, tested at 30, 10 and 3 μg/ml
Experimental: Trans-well chamber (BioCoat™ Matrigel™ Invasion Chamber, pore size 8 μm, BD Biosciences, Bedford, Mass.) was used for the investigation of inhibitory activity of the compounds of the present invention on cancer cell metastasis. Particularly, human breast cancer cells (MDA-MB-231 cells) were distributed on the upper part of the chamber at the density of 1.0×10^5 cells per well. DMEM (Dulbecco's modification of Eagles medium, serum-free) was used for the culture. 30 minutes later, the compounds 1 and 2 were added to the upper part of the chamber at different concentrations of 30 μg/ml, 10 μg/ml, and 3 μg/ml, respectively. 30 minutes later, 10% FBS was added to the bottom of the chamber, followed by culture in a 5% CO2 incubator at 37° C. for 24 hours. 24 hours later, the cells migrated through porous membrane which had been induced by 10% FBS in the bottom of the chamber were fixed with 100% MeOH, followed by staining with Wright stain. Upon completion of the staining, the migrated cells were counted under microscope.

[6] = tested on: human liver cancer cell line (Hep3B); assay: Inhibition of cancer cell proliferation (WST-8 cell survival), Hep3B; conditions: 48 hours culture with compound, WST-8, OD450
Experimental: as §1, §2

Row | SMILES | IC50 [1] [µg/mL] | IC50 [2] [µg/mL] | IC50 [3] [µg/mL] | IC50 [4] [µg/mL] | ED100 indicating the concentration capable of inhibiting metastasis of human breast cancer cell line by 100% [5] [µg/mL] | IC50 [6] [µg/mL]
1 | C[C@H]1CC[C@H]2[C@@H](C=C[C@@H]3[C@H]4[C@@H](C)O[C@]5(O)[C@@H](CO)N(C)C(=O)[C@]45C(=O)[C@@]32C)C1 [compound 1, fusarisetin A] | 57.7 (≈ 148 µM) | 69.5 (≈ 178 µM) | 67.5 (≈ 173 µM) | 61.3 (≈ 157 µM) | 10 | 34.7 (≈ 89.1 µM)
2 | C[C@H]1CC[C@H]2[C@@H](C=C[C@@H]3[C@H]4[C@H](C)O[C@]5(O)[C@@H](CO)N(C)C(=O)[C@]45C(=O)[C@@]32C)C1 [compound 2, fusarisetin B] | 29.4 (≈ 75.5 µM) | 76.5 (≈ 196 µM) | 62.2 (≈ 160 µM) | 49.3 (≈ 127 µM) | 10 | 27.2 (≈ 69.8 µM)
